The test system of one series is Candida albicans B311. The experiment in a line: prevention of mortality in rats infected with lethal doses of Candida albicans, continuous intravenous infusion. The class given is in vivo, rat infected with Candida albicans B311. The procedure: (§1) Candida albicans strain B311 (originally obtained from H. Hasenclever, National Institutes of Health, Bethesda, Md.) was employed in the following examples. For growth of yeast inocula, frozen culture aliquots were inoculated into 2% glucose, 1% yeast extract broth and grown at 35° C. with shaking until the culture entered the early log phase of growth. Yeast were collected by centrifugation, washed, and adjusted to the appropriate concentration in sterile phosphate-buffered saline (PBS).
Using methods similar to those described above, rats were infected intravenously with a higher inoculum level; i.e., 3.2×10^6 cfu/rat, to induce mortalities. Fourteen hours after infection, treatment by continuous infusion was initiated with nikkomycin Z administered continuously at 330 mg/kg/day; control animals were treated with vehicle. Treatment was continued for 96 h, then animals were held for a total of 28 days for observation of mortalities.
Experiments similar to those described above in this Section were performed to determine the effect of low doses of nikkomycin Z in preventing mortality in animals infected with Candida albicans. Using methods similar to those described above, rats were infected intravenously with 1.05×10^7 cfu/rat of C. albicans B311, a dose that would normally rapidly induce mortalities. The inoculum and the subsequent drug treatment was administered via an indwelling catheter placed in the jugular vein. For the experiment, therapy was initiated 14 h after infection with yeast and nikkomycin Z was administered continuously at 33 or 100 mg/kg/day; control animals were treated with vehicle. All animals were treated continuously for 96 h, with test solutions delivered from syringes using infusion pumps. Syringes and solutions were changed daily. Animals were held for a total of 30 days for observation of mortalities.

Another series deals with C. albicans. The settings on record: subcutaneous, high concentrations; cited from earlier work.
A further series concerns plants, fish, or mammals. The settings on record: under reasonable doses; cited from earlier work.
For series [1], the system named is Candida albicans. Conditions: cited from earlier work.
The next series concerns Candida. The settings on record: subcutaneous injections beginning one hour after inoculation; cited from earlier work.
A further series concerns chitin synthase. The settings on record: in words; cited from earlier work.
Series [2] concerns Candida albicans strain B311. The experiment in a line: quantitative recovery of viable yeast from kidneys in rat model of systemic candidiasis, continuous intravenous infusion. The format is in vivo. Conditions: for decrease in viable yeast per gram of tissue / Geometric mean log10 CFU/gm ± S.E.M. (kidney): 96 h; for Geometric mean log10 CFU/gm ± S.E.M. (kidney): inoculum 1×10^6 cfu/rat. The procedure: as §1
A rat model of systemic candidiasis was used to assess the effect of nikkomycin Z in vivo. […] The inoculum and the subsequent drug treatment was administered via an indwelling catheter placed in the jugular vein that was "tunneled" out the back and placed inside a protective, flexible, metal sheath. For both experiments, therapy was initiated 12-14 h after infection with nikkomycin Z (formulated in a vehicle of 2% dimethylsulfoxide (DMSO)/ 98% dextrose (5%)) administered continuously at 330 mg/kg/day; control animals were treated with vehicle. In the first experiment, animals were treated continuously for 72 h. In the second experiment, animals were treated continuously for 96 h. Drug and vehicle were administered continuously at a volume of one ml per hour. At 7 or 9 h after cessation of treatment, respectively, all animals were euthanized for the removal of kidneys, which were cultured for the quantitative recovery of viable yeast. From each animal, the two kidneys were placed into tared, sterile tubes (one tube per animal, i.e., two kidneys per tube) containing ten ml of sterile PBS. The kidneys were then weighed and the tube contents homogenized. Organ homogenates were diluted in serial fashion and cultured on Sabourauds agar plates containing 50 μg/ml chloramphenicol for the quantitative recovery of viable yeast. The plates were incubated overnight at room temperature and colonies enumerated. Calculations were made to determine the log10 cfu's per gram of tissue for each animal.
Experiments similar to those described above were performed to determine the effectiveness of low doses of Nikkomycin Z in reducing the yeast load in organs of infected animals in the rat model of systemic candidiasis. Experimental details such as yeast used, growth conditions, rats used, and methods of inoculation and drug delivery were as described above in Sections 6.1 and 6.2. Inoculum levels were 1×10^6 cfu/rat. Therapy was initiated 14 h after yeast infection and nikkomycin Z was administered continuously at either 33 or 100 mg/kg/day for a total of 96 h; control animals were treated with vehicle. Test solutions were delivered from syringes using infusion pumps; syringes and solutions were changed daily. After cessation of treatment, all animals were euthanized for the removal of kidneys, which were cultured for the quantitative recovery of viable yeast. Organ removal and culture were done as above. Organ homogenates were cultured on Sabourauds agar and incubated overnight for the enumeration of yeasts as above.

Series [3] can be described thus: plasma concentration of nikkomycin Z following continuous intravenous administration, HPLC/SPE. The format is in vivo, rat (outbred male albino, strain S/A). The procedure: The experimental animals were outbred male albino rats (strain S/A, Simonsen Laboratories, Gilroy, Calif.), 350-400 g average weight, housed one per cage, fed rodent chow and water ad libitum, and identified by ear tags. Rats receiving continuous intravenous administration of nikkomycin Z were cannulated in the left carotid artery and right jugular vein.
Continuous intravenous administration involved a 2 hour loading dose of 20 mg/kg/hour nikkomycin Z and then an infusion rate of 33 mg/kg/day over 24 hours. The formulation contained 1 mg/ml nikkomycin Z in sterile 5% dextrose. Blood samples of 1 ml were withdrawn at 0, 0.25, 0.5, 1, 2, 4, 6 and 12 h.
Nikkomycin Z was extracted from the plasma samples using solid phase extraction (SPE) columns. The SPE matrix was phenylboronate (PBA) which covalently binds nikkomycin Z at high pH. After washing with 20 mM sodium carbonate/bicarbonate alkaline buffer, nikkomycin Z was eluted from the extraction column with a 20 mM glycine solution at pH 1.2. Following a drying and reconstitution step, nikkomycin Z plasma concentration was determined using reverse phase HPLC. The plasma concentrations of nikkomycin Z derived from the HPLC analysis were plotted against time.

A further series has as its system chitin synthesis. The settings on record: subcutaneous, high concentrations; cited from earlier work.
A further series has as its system Coccidioides immitis. Conditions: in vitro, literature; cited from earlier work.
Series [4] is described as follows: plasma levels after subcutaneous sustained release gel (PLURONIC F127) or single intravenous administration, HPLC. The class given is in vivo. Conditions: rat, single intravenous administration, read-out: mean residence time (MRT), nikkomycin Z total compounds.
The test system of series [5] is Candida albicans. Conditions: oral, 10-14 day period; cited from earlier work.
For series [6], the system named is Candida albicans. The settings on record: in vitro; prolonged exposure; literature; cited from earlier work.
The mark [7] stands for this setting: bolus intravenous once daily, up to 20 days.

“Also recorded” adds a separate entry of the source.

The text below walks through data of patent US5789387A (priority 1996, dated 1998).

A word on the Tmax: it is the time from dosing to the highest level. As a reminder, the MRT is the average time that molecules of a dose stay in the body.

As to `C[C@@H]([C@H](N)C(=O)N[C@H](C(=O)O)[C@H]1O[C@@H](n2ccc(=O)[nH]c2=O)[C@H](O)[C@@H]1O)[C@H](O)c1ccc(O)cn1` [nikkomycin Z], the survival result in the series with Candida albicans B311 (33 mg/kg/day continuous infusion 96 h, inoculum 1.05×10^7 cfu/rat, 30 days observation) was “all animals receiving nikkomycin Z at either 33 or 100 mg/kg/day by continuous infusion survived the entire observation period; also recorded: complete protection of rats against a lethal challenge with Candida albicans”; in the series with Candida albicans B311 (100 mg/kg/day continuous infusion 96 h, inoculum 1.05×10^7 cfu/rat, 30 days observation) it was “all animals receiving nikkomycin Z at either 33 or 100 mg/kg/day by continuous infusion survived the entire observation period”; in the series with Candida albicans B311 (330 mg/kg/day continuous infusion 96 h, inoculum 3.2×10^6 cfu/rat, 28 days observation), “all animals receiving nikkomycin Z by continuous infusion survived the entire observation period”; with Candida albicans [5], “animals ultimately succumbed to infection”. For the same compound, the “numbers of yeasts in kidneys / efficacy” value with C. albicans is listed as “treatment did not result in any reduction in numbers of yeasts”. Also, in the series on plants, fish, or mammals, the toxicity entry is recorded as “no toxicity against plants, fish, or mammals under reasonable doses”. Also, in the series on Candida albicans [1] (setting [7]), the “efficacy as characterized by others” value was “modest efficacy; also recorded: limited efficacy”. In the series on Candida albicans [1] (setting [7]), the “mortality of infected mice” value is listed as “a delay in the onset of mortalities in infected mice; also recorded: essentially all mice died shortly after cessation of therapy”. Further, in the series on Candida albicans [1] (summary of earlier studies with reasonable delay between challenge and administration (oral, iv bolus, sc)), the “promotion of survival and reduction of fungal burden in kidneys (prior studies)” value is “at best in a fungistatic fashion with only marginal activity in promoting survival and only limited ability to reduce the fungal burden in the kidneys”. In addition, the “protection against experimental candidiasis” value with Candida is “some protection”. Besides, the “inhibition of chitin synthase” value in the series on chitin synthase was “potent inhibitor”. Moreover, the “reduction of yeast load in organs (in words)” value in series [2] (33 mg/kg/day continuous infusion, 96 h (4 days)) was “sufficient to dramatically reduce the yeast load in organs of infected animals; also recorded: significantly reduce the yeast organ load”. The “decrease in viable yeast per gram of tissue” value in [2] (33 mg/kg/day) was “approximately 1 log10 units”; in series [2] (100 mg/kg/day), approximately 2 log10 units. Besides, the figures for the “Geometric mean log10 CFU/gm ± S.E.M. (kidney)” value in series [2] (33 mg/kg/day) and in series [2] (100 mg/kg/day) were 4.23 ± 0.15 log10 CFU/gm and 3.48 ± 0.15 log10 CFU/gm, respectively. In addition, in series [2] (Exp. 1, 330 mg/kg/day continuous infusion over 72 h, inoculum 6.2×10^5 cfu/rat), the “Geometric mean log10 CFU/gm ± S.E.M. (kidney), Exp. 1” value is 3.09 ± .16 log10 CFU/gm. Besides, the “Geometric mean log10 CFU/gm ± S.E.M. (kidney), Exp. 2” value in [2] (Exp. 2, 330 mg/kg/day continuous infusion over 96 h, inoculum […]10^6 cfu/rat) is on record as 3.73 ± .05 log10 CFU/gm. Moreover, the “steady state plasma concentration” value in series [3] (infusion 33 mg/kg/day intravenous after loading dose, 33 mg/kg/day) was “about 170 ng/ml”. Also, the time of peak concentration (Tmax) in [3] (rat, plasma, 2 hour loading dose of 20 mg/kg/h, then 33 mg/kg/day intravenous) was found to be 1 h. Moreover, in series [3] (rat, plasma, 2 hour loading dose of 20 mg/kg/h, then 33 mg/kg/day intravenous, read-out: maximum plasma concentration), the Cmax was approximately 6600 ng/mL. The “chitin synthesis in vivo” value in the series on chitin synthesis is listed as “depress chitin synthesis in vivo”. Further, the “concentration at which C. immitis is rapidly susceptible” value in the series with Coccidioides immitis was 60 to 100 µM. Also, the MRT in series [4] came out at 12 min.
As to `NC(=O)OC[C@H](O)[C@@H](O)[C@H](N)C(=O)N[C@H](C(=O)O)[C@H]1O[C@@H](n2cc(C(=O)O)c(=O)[nH]c2=O)[C@H](O)[C@@H]1O` [polyoxin D], the “effect on Candida cells (in words)” value with Candida albicans [6] is “exhibited a phenomenon called "chaining". Although deformed, these cells were able to survive several replications, though ultimately they became sensitive to osmotic pressures and would lyse”. Further, in the series with Coccidioides immitis, the “concentration at which C. immitis is rapidly susceptible” value was 60 to 100 µM.
